Test results: patent US6638963B1, “Methods for treating circadian rhythm disorders” (Oregon Health and Science University, priority 1990, dated 2003)

Legend:
Assay type in all cases: in vivo, human
[1] = system: patients with winter depression; experiment: Treatment of patients with winter depression, SIGH-SAD depression ratings, melatonin versus placebo (Example 11); settings: for SIGH-SAD change score from pre-treatment: 0.125 mg per capsule at about CT 8 and about CT 12, N=5, p<0.05 vs placebo
Procedure: Patients with winter depression were treated with either melatonin (N=5) or placebo (N=5). All subjects were screened prior to being admitted into the study and met the following criteria: 1) the DSM-IV criteria (American Psychiatric Association, 1994) for moderate to severe major depressive disorder (without psychotic episodes) or bipolar disorder (depressed or not otherwise specified) with a winter type seasonal pattern; 2) scored […] on the Structured Interview Guide for the Hamilton Depression Rating Scale Seasonal Affective Disorder Version (SIGH-SAD) (Williams et al., 1994, Structured Interview Guide for the Hamilton Depression Scale-Seasonal Effective Disorder Version (SIGH-SAD), New York: New York State Psychiatric Institute) with Hamilton Depression Scale (HAM-D) (Hamilton, 1967, Brit. J. Soc. Clin. Psychol. 6: 278-296)≦10 and an atypical score ≦5 ([…] et al., 1990, Neuropsychopharmacol. […] Prior to inclusion in the study, subjects were interviewed by a physician and also completed 7 a health and sleep screening questionnaire. Written informed consent was obtained for all participants. The study was a three-week, parallel-group design, consisting of a pre-treatment assessment followed by three treatment weeks. Subjects were randomly assigned to either a melatonin or placebo group and were counter balanced based on their initial depression scores (SIGH-SAD) and their reported awakening times. Each group received melatonin or placebo in two daily capsules at about CT 8 and about CT 12, estimated from each subject's initial reported awakening time (about CT 0). The dose of melatonin was 0.125 mg per capsule. For behavioral ratings, subjects were initially interviewed face-to-face using the 29-item Structured Interview Guide for the Hamilton Depression Rating Scale-Seasonal Affective Disorder version (SIGH-SAD). Two subsequent interviews were done weekly by telephone and the third and final interview was conducted in person. All interviews were conducted by a researcher blind to treatment conditions. For the three-week period, subjects completed a Likert daily rating form and a daily sleep diary. To specifically assess fatigue associated with the capsule, subjects also completed a Profile of Mood States (POMS) 30 minutes after ingestion of each capsule. In addition, pre-study and weekly expectations questionnaires were completed. Ten patients (9 females) with winter depression were admitted into the study. The mean age of the melatonin group was 37 (SD=13.6; range: 22-58) and the placebo group was 32.2 (SD=8.6; range: 22-42). The mean pre-treatment SIGH-SAD score for the placebo group was 29.4; the melatonin group mean was 29.2. The initial reported mean wake up time for the placebo group was 7:12 AM; the melatonin group mean was 7:20 AM. […]

[2] = system: dim light melatonin onset (DLMO); experiment: Melatonin phase response curve trials, two doses of 0.25 mg two hours apart (Example 2); settings: four days, nine subjects, 30 trials, time referenced to first capsule
Procedure: (§1) Prior to collection of human blood, subjects were kept in dim light for about 5 hours (usually between 6 p.m. and 11 p.m.). An intravenous line or heparin lock was inserted in a forearm vein and 5 mL of blood drawn every 30 minutes between 7 p.m. and 11 p.m. The blood samples were centrifuged for 5 minutes at 1000 g and 4° C., and the plasma aspirated into a silanized glass or plastic tube. Samples were assayed immediately or frozen for later analysis. Saliva samples can alternatively be collected and analyzed
To a 1 mL aliquot of such plasma was added 50 picograms of N-acetyl-5-methoxy(α,α,β,β-D4)tryptamine as a chromatographic control. […]
(§2) The amount of melatonin present in each sample was determined by gas chromatographic-mass spectrometric analysis. […]
Mass spectrographic analysis of the column eluant was then performed. Mass spectra were recorded using a Hewlett Packard 5989A mass spectrometer with an ETP Scientific electron multiplier using HP Chemstation software. The relative signals of melatonin and the added N-acetyl-5-methoxy(α,α,β,β-D4)tryptamine control were detected at m/e (mass/charge) ratios of 320 and 323, respectively. […]
Melatonin was administered to nine subjects as two doses of 0.25 mg, two hours apart, thereby simulating a sustained-release (SR) formulation. […] Phase shifts were calculated by subtracting the post-treatment DLMO from the pre-treatment DLMO. […]

[3] = system: dim light melatonin onset (DLMO); experiment: Melatonin phase response curve trials, single 0.5 mg immediate-release dose (Example 3)
Procedure: as §1
To a 1 mL aliquot of such plasma was added 50 picograms of N-acetyl-5-methoxy(α,α,β,β-D4)tryptamine as a chromatographic control. An equal volume of normal saline was added and the mixture gently shaken with 8 volumes of petroleum ether. The organic phase was removed, and melatonin and the added N-acetyl-5-methoxy(α,α,β,β-D4)tryptamine control extracted from the aqueous phase with 8 volumes of chloroform. The aqueous phase was then discarded, and the chloroform evaporated to dryness.
The dried extract containing melatonin and the added N-acetyl-5-methoxy(α,α,β,β-D4)tryptamine control was dissolved in 50 μL ethyl acetate. The melatonin contained in the plasma samples and the added N-acetyl-5-methoxy(α,α,β,β-D4)tryptamine control were then derivatized by the addition of 50 μL of pentafluoroproprionic acid anhydride and reacted at 70° C. for 10 minutes. These reaction products were then evaporated to dryness under nitrogen. The dried extract was partitioned between 0.5 mL acetonitrile and 1 mL hexane by vigorous mixing followed by centrifugation and removal of the hexane layer. This partitioning step was repeated twice more, except that the hexane was not removed after the final partitioning. […]
as §2
Mass spectrographic analysis of the column eluant was then performed. Mass spectra were recorded using a Hewlett Packard 5989A mass spectrometer with an ETP Scientific electron multiplier using HP Chemstation software. The relative signals of melatonin and the added N-acetyl-5-methoxy(α,α,β,β-D4)tryptamine control were detected at m/e (mass/charge) ratios of 320 and 323, respectively. The amount of melatonin present in any unknown sample can be determined by comparison of the ratio of the intensities of these signals to a standard curve, prepared as described using known amounts of melatonin and added N-acetyl-5-methoxy(α,α,β,β-D4)tryptamine control.
Melatonin was administered to five subjects as a single 0.5 mg (or immediate-release (IR)) dose. […] Dim light melatonin onset (DLMO) times were determined at the end of each week. Phase shifts were calculated from a comparison of the post-treatment DLMO to the pre-treatment DLMO. […]

[4] = system: endogenous circadian pacemaker; experiment: Dose effect of melatonin on shift of the endogenous circadian pacemaker; settings: melatonin dosages from about 0.125 mg to about 0.5 mg
Description: The present invention contemplates the administration of various doses of melatonin which promote quantitative shifts in an individual's endogenous circadian pacemaker. The administration of sufficient doses of melatonin is capable of shifting the endogenous circadian pacemaker, as well as the melatonin PRC, by an appropriate degree. […] The amount of melatonin administered to a human subject should be sufficient to achieve the desired circadian rhythm phase-shifting effect. In a preferred embodiment of this invention, a dosage of about 0.01 mg to about 100 mg, more preferably about 0.1 mg to about 10 mg, most preferably about 0.1 mg to about 1 mg, of exogenous melatonin is used to effect the desired change in phase of the circadian rhythm of endogenous melatonin production. For the purposes of this invention, the term “exogenously administered melatonin” encompasses various formulations of melatonin, melatonin agonists (that is, compounds that mimic melatonin's actions) and compounds that raise endogenous melatoriin levels. Therefore, whenever reference is made to increasing plasma melatonin levels due to administration of exogenous melatonin, this refers also to increasing plasma melatonin levels due to administration of a melatonin stimulant and increasing equivalent agonist levels due to administration of a melatonin agonist. […]

[5] = both PRC studies (Examples 2 and 3)

Question: For `COc1ccc2[nH]cc(CCNC(C)=O)c2c1` [melatonin, N-acetyl-5-methoxytryptamine], which “SIGH-SAD change score from pre-treatment” value ([1]; Week 1) is on record?
Answer: Its value is 15.4.

Question: And the “SIGH-SAD change score from pre-treatment” value ([1]; Week 2)?
Answer: Its value is 16.8.

Question: What about the “responders (39% or greater decrease in SIGH-SAD ratings to a score of 21 or less)” value ([1]; five subjects per group, one responder in placebo group, p=0.048, Fisher's Exact test) of the same compound?
Answer: The value was “all five subjects responded”.

Question: And the “SIGH-SAD scores after two weeks of capsules, melatonin versus placebo” value ([1]; one-tailed unpaired t-test, p=0.05)?
Answer: The value was “significant difference”.

Question: And the “circadian time of administration at which maximal phase advances occur” value [2]?
Answer: The value was ~7.5 CT.

Question: What about the “crossover point between advance and delay responses of the melatonin PRC” value [3, 5] of the same compound?
Answer: Its value is ~18 CT.

Question: And the “crossover point between delay and advance responses of the melatonin PRC” value [3, 5]?
Answer: The value was ~6 CT.

Question: And the “circadian time for maximal phase advances” value ([3]; single 0.5 mg IR dose, four days, five subjects, twelve trials each)?
Answer: The value was ~11 CT.

Question: What about the “circadian time at which phase delays begin” value ([3]; single 0.5 mg IR dose, same time as found in Example 2) of the same compound?
Answer: The value was ~6 CT.

Question: What about the “dose effect on shift of endogenous circadian pacemaker” value [4] of the same compound?
Answer: Its value is “linear dose effect”.
